Experimental data from patent US20030138470A1, “Fragrant composition having mosquito-repelling effect” (TAKASAGO INTERNATIONAL CORPORATION, priority 2001, published 2003).

Tested on: adults of Culex pipiens pallen
Test: Blood-sucking repelling test on forearms
Type: in vivo
Conditions: 1% test sample solution on forearms, 15 minutes exposure, 30° C., humidity 70%
Procedure: […] of 1% test sample solutions were prepared by dissolving 1 g of each of the fragrant compositions of Examples 1, 2 and 3, Comparative Example 3 (Pelargonium citrosum extract), and Comparative Example 4 (DEET) into 90 g of ethanol and adding 9 g of water.
On the sample solutions of Examples 1, 2 and 3 and Comparative Examples 3 and 4, a blood-sucking repelling test toward adults of Culex pipiens pallen was carried out, whereby strength of mosquito-repellency and persistency were compared.
The test was carried out in a constant-temperature room kept at a temperature of 30° C. and a humidity of 70%.
After 10 ml of each test sample solution was applied onto right and left forearms, each arm was entered for 15 minutes into a bag-shape wire netting having a size of 20 cm×15 cm in which 50 each of male and female mosquitoes which were 5 to 7 days after emergence were placed, whereby the mosquitoes were allowed to suck blood. This operation was repeatedly carried out 1 hour, 2 hours, 3 hours, 4 hours, and 6 hours after the sample application, the number of sucked places within the sucking time was counted, and repellency was calculated according to the following equation.
Repellency=[(X−Y)/X]×100(%)
X: the number of sucked places in the case that no test sample solution was applied.
Y: the number of sucked places in the case that a test sample solution was applied.

CCN(CC)C(=O)c1cccc(C)c1 [Comparative Example 4, N,N-Diethyl-m-toluamide]
100%: Repellency After 1 hour (1 hour after application) | Repellency After 2 hours (2 hours after application) | Repellency After 3 hours (3 hours after application) | Repellency After 4 hours (4 hours after application) | Repellency After 6 hours (6 hours after application)
